Measured values reported in ChEMBL document CHEMBL5537115, “New broad-spectrum and potent antibacterial agents with dual-targeting mechanism: Promoting FtsZ polymerization and disrupting bacterial membranes” (Eur J Med Chem, 2024).
In brackets after ≈: the same amount, converted by molar mass.

Key:
Assay type in all cases: functional
[1] = tested on: Streptococcus pyogenes; experiment: Antibacterial activity against erythromycin-resistant Streptococcus pyogenes 2 clinical isolate assessed as bacterial growth inhibition incubated for 20 hrs by CLSI based broth microdilution method
[2] = tested on: Staphylococcus epidermidis; experiment: Antibacterial activity against penicillin-resistant Staphylococcus epidermidis clinical isolate assessed as bacterial growth inhibition incubated for 20 hrs by CLSI based broth microdilution method
[3] = tested on: Staphylococcus aureus; experiment: Antibacterial activity against Staphylococcus aureus clinical isolate assessed as bacterial growth inhibition incubated for 20 hrs by CLSI based broth microdilution method
[4] = tested on: Staphylococcus aureus; experiment: Antibacterial activity against penicillin-resistant Staphylococcus aureus ATCC31007 assessed as bacterial growth inhibition incubated for 20 hrs by CLSI based broth microdilution method
[5] = tested on: Staphylococcus aureus; experiment: Antibacterial activity against methicillin-resistant Staphylococcus aureus ATCC43300 assessed as bacterial growth inhibition incubated for 20 hrs by CLSI based broth microdilution method
[6] = tested on: Klebsiella pneumoniae; experiment: Antibacterial activity against Klebsiella pneumoniae ATCC BAA-1902 assessed as bacterial growth inhibition incubated for 20 hrs by CLSI based broth microdilution method
[7] = tested on: Acinetobacter baumannii; experiment: Antibacterial activity against Acinetobacter baumannii ATCC19606 assessed as bacterial growth inhibition incubated for 20 hrs by CLSI based broth microdilution method
[8] = tested on: Escherichia coli; experiment: Antibacterial activity against wild-type Escherichia coli BW25113 assessed as bacterial growth inhibition incubated for 20 hrs by CLSI based broth microdilution method
[9] = tested on: Escherichia coli; experiment: Antibacterial activity against penicillin-susceptible Escherichia coli ATCC25922 assessed as bacterial growth inhibition incubated for 20 hrs by CLSI based broth microdilution method
[10] = tested on: Enterococcus faecium; experiment: Antibacterial activity against vancomycin-susceptible Enterococcus faecium ATCC19434 assessed as bacterial growth inhibition incubated for 20 hrs by CLSI based broth microdilution method
[11] = tested on: Enterococcus faecalis; experiment: Antibacterial activity against vancomycin-susceptible Enterococcus faecalis ATCC29212 assessed as bacterial growth inhibition incubated for 20 hrs by CLSI based broth microdilution method
[12] = tested on: Streptococcus pyogenes; experiment: Antibacterial activity against erythromycin-susceptible Streptococcus pyogenes 1 assessed as bacterial growth inhibition incubated for 20 hrs by CLSI based broth microdilution method
[13] = tested on: Staphylococcus aureus; experiment: Antibacterial activity against erythromycin-susceptible Staphylococcus aureus ATCC25923 assessed as bacterial growth inhibition incubated for 20 hrs by CLSI based broth microdilution method
[14] = tested on: Bacillus pumilus; experiment: Antibacterial activity against penicillin-susceptible Bacillus pumilus CMCC63202 assessed as bacterial growth inhibition incubated for 20 hrs by CLSI based broth microdilution method
[15] = tested on: Bacillus subtilis; experiment: Antibacterial activity against penicillin-susceptible Bacillus subtilis ATCC9372 assessed as bacterial growth inhibition incubated for 20 hrs by CLSI based broth microdilution method
[16] = tested on: Enterococcus faecalis; experiment: Antibacterial activity against vancomycin-resistant Enterococcus faecalis ATCC51299 assessed as bacterial growth inhibition incubated for 20 hrs by CLSI based broth microdilution method
[17] = tested on: Enterococcus faecium; experiment: Antibacterial activity against vancomycin-resistant Enterococcus faecium ATCC51559 assessed as bacterial growth inhibition incubated for 20 hrs by CLSI based broth microdilution method

Row | SMILES | MIC [1] [µg/mL] | MIC [2] [µg/mL] | MIC [3] [µg/mL] | MIC [4] [µg/mL] | MIC [5] [µg/mL] | MIC [6] [µg/mL] | MIC [7] [µg/mL] | MIC [8] [µg/mL] | MIC [9] [µg/mL] | MIC [10] [µg/mL] | MIC [11] [µg/mL] | MIC [12] [µg/mL] | MIC [13] [µg/mL] | MIC [14] [µg/mL] | MIC [15] [µg/mL] | MIC [16] [µg/mL] | MIC [17] [µg/mL]
1 | CC1(C)S[C@@H]2[C@H](NC(=O)[C@H](NC(=O)N3CCN(S(C)(=O)=O)C3=O)c3ccccc3)C(=O)N2[C@H]1C(=O)O [MEZLOCILLIN] | < 0.062 | > 64 | 32 (≈ 59.3 µM) | > 64 | 16 (≈ 29.7 µM) | > 64 | 64 (≈ 119 µM) | 1 (≈ 1.85 µM) | 1 (≈ 1.85 µM) | 16 (≈ 29.7 µM) | 2 (≈ 3.71 µM) | < 0.062 | 1 (≈ 1.85 µM) | 2 (≈ 3.71 µM) | 4 (≈ 7.41 µM) | > 64 | > 64
2 | CCCOc1ccc(/C=C/c2cc(-c3ccc(C(C)(C)C)cc3)[n+](C)cc2-c2ccccc2)cc1.[I-] | 2 | 1 | 0.5 | 1 | 0.5 | 8 | 2 | 8 | 4 | 1 | 2 | 2 | 0.125 | 1 | 0.125 | 1 | 1
3 | C[n+]1cc(-c2ccccc2)c(/C=C/c2ccc(C(C)(C)C)cc2)cc1-c1ccc2ccccc2c1.[I-] | 4 | 2 | 0.5 | 2 | 1 | 8 | 1 | 4 | 64 | 2 | 1 | 1 | 1 | 0.5 | 0.5 | 2 | 2
4 | C[n+]1cc(-c2ccccc2)cc(/C=C/c2ccc(Cl)c(Cl)c2)c1-c1ccccc1.[I-] | 2 | 8 | 2 | 8 | 2 | > 64 | 2 | 64 | 64 | 8 | 8 | 2 | 0.5 | 4 | 0.5 | 8 | 8
5 | C[n+]1cc(-c2ccccc2)cc(/C=C/c2ccc(F)cc2)c1-c1ccccc1.[I-] | 8 | 64 | 8 | 64 | 8 | > 64 | 32 | > 64 | > 64 | 64 | 64 | 8 | 2 | 32 | 8 | > 64 | 64
6 | CC(C)c1ccc(/C=C/c2cc(-c3ccccc3)c[n+](C)c2-c2ccccc2)cc1.[I-] | 2 | 4 | 0.5 | 4 | 2 | 32 | 8 | 32 | 16 | 4 | 4 | 2 | 0.5 | 2 | 1 | 4 | 4
7 | CCCCCCCOc1ccc(/C=C/c2cc(-c3ccccc3)c[n+](C)c2-c2ccccc2)cc1.[I-] | 8 | 64 | 8 | 64 | 8 | 8 | 2 | 8 | 8 | 2 | 4 | 4 | 0.25 | 1 | 1 | > 64 | 64
8 | CN[C@H](CC(C)C)C(=O)N[C@H]1C(=O)N[C@@H](CC(N)=O)C(=O)N[C@H]2C(=O)N[C@H]3C(=O)N[C@H](C(=O)N[C@H](C(=O)O)c4cc(O)cc(O)c4-c4cc3ccc4O)[C@H](O)c3ccc(c(Cl)c3)Oc3cc2cc(c3O[C@@H]2O[C@H](CO)[C@@H](O)[C@H](O)[C@H]2O[C@H]2C[C@](C)(N)[C@H](O)[C@H](C)O2)Oc2ccc(cc2Cl)[C@H]1O [VANCOMYCIN] | 1 (≈ 0.69 µM) |  |  |  |  | > 64 | 64 (≈ 44.2 µM) | > 64 | > 64 |  |  | 0.25 (≈ 0.173 µM) |  | 2 (≈ 1.38 µM) | 0.5 (≈ 0.345 µM) | > 64 | > 64
9 | CC(=O)Nc1ccc(/C=C/c2cc(-c3ccc4ccccc4c3)[n+](C)cc2-c2ccccc2)cc1.[I-] |  |  | 1 |  |  | > 64 | 32 | > 64 | > 64 | 32 | 16 |  | 0.5 | 16 | 1 |  | 
